Laboratory results reported in ChEMBL document CHEMBL3774317, “Design and synthesis of novel tamoxifen analogues that avoid CYP2D6 metabolism” (Eur J Med Chem, 2016).

Legend:
Assay type in all cases: functional
[1] = Cytotoxicity against human MOLT4 cells assessed as cell growth at 10^-5 M after 48 hrs by SRB assay; conditions: MOLT-4, 48 h, read-out: Activity
K562 = experiment: Cytotoxicity against human K562 cells assessed as growth inhibition after 48 hrs by SRB assay; conditions: K562, 48 h
[2] = Cytotoxicity against human HOP92 cells assessed as cell growth at 10^-7 M after 48 hrs by SRB assay; conditions: HOP-92, 48 h, read-out: Activity
[3] = Cytotoxicity against human HCT15 cells assessed as cell growth at 10^-7 M after 48 hrs by SRB assay; conditions: HCT-15, 48 h, read-out: Activity
[4] = Cytotoxicity against human OVCAR4 cells assessed as cell growth at 10^-6 M after 48 hrs by SRB assay; conditions: OVCAR-4, 48 h, read-out: Activity
SK-MEL-2 [5] = experiment: Cytotoxicity against human SK-MEL-2 cells assessed as cell growth at 10^-6 M after 48 hrs by SRB assay; conditions: SK-MEL-2, 48 h, read-out: Activity
EKVX = experiment: Cytotoxicity against human EKVX cells assessed as cell growth at 10^-4 M after 48 hrs by SRB assay; conditions: read-out: Activity
U-251 = experiment: Cytotoxicity against human U251 cells assessed as cell growth at 10^-6 M after 48 hrs by SRB assay; conditions: U-251, 48 h, read-out: Activity
[6] = Cytotoxicity against human HL-60(TB) cells assessed as cell growth at 10^-7 M after 48 hrs by SRB assay; conditions: HL-60, 48 h, read-out: Activity
[7] = Cytotoxicity against human TK10 cells assessed as cell growth at 10^-4 M after 48 hrs by SRB assay; conditions: TK-10, 48 h, read-out: Activity
[8] = Cytotoxicity against human SNB75 cells assessed as cell growth at 10^-5 M after 48 hrs by SRB assay; conditions: SNB-75, 48 h, read-out: Activity
HT-29 [9] = experiment: Cytotoxicity against human HT-29 cells assessed as cell growth at 10^-6 M after 48 hrs by SRB assay; conditions: HT-29, 48 h, read-out: Activity
[10] = Cytotoxicity against human Hs 578T cells assessed as cell growth at 10^-4 M after 48 hrs by SRB assay; conditions: read-out: Activity
[11] = Cytotoxicity against human RPMI8226 cells assessed as cell growth at 10^-5 M after 48 hrs by SRB assay; conditions: RPMI-8226, 48 h, read-out: Activity
[12] = Cytotoxicity against human Hs 578T cells assessed as cell growth at 10^-7 M after 48 hrs by SRB assay; conditions: read-out: Activity
A549 [13] = experiment: Cytotoxicity against human A549 cells assessed as cell growth at 10^-4 M after 48 hrs by SRB assay; conditions: A549, 48 h, read-out: Activity
[14] = Cytotoxicity against human SKOV3 cells assessed as cell growth at 10^-5 M after 48 hrs by SRB assay; conditions: SK-OV-3, 48 h, read-out: Activity
[15] = Cytotoxicity against human HCC2998 cells assessed as cell growth at 10^-6 M after 48 hrs by SRB assay; conditions: HCC 2998, 48 h, read-out: Activity
[16] = Cytotoxicity against human SKOV3 cells assessed as growth inhibition after 48 hrs by SRB assay; conditions: SK-OV-3, 48 h; for CC50: read-out: LC50 (the source's name)
SK-MEL-5 = experiment: Cytotoxicity against human SK-MEL-5 cells assessed as cell growth at 10^-8 M after 48 hrs by SRB assay; conditions: SK-MEL-5, 48 h, read-out: Activity
SK-MEL-28 [17] = experiment: Cytotoxicity against human SK-MEL-28 cells assessed as cell growth at 10^-8 M after 48 hrs by SRB assay; conditions: SK-MEL-28, 48 h, read-out: Activity
[18] = Cytotoxicity against human OVCAR8 cells assessed as cell growth at 10^-7 M after 48 hrs by SRB assay; conditions: OVCAR-8, 48 h, read-out: Activity
SR = experiment: Cytotoxicity against human SR cells assessed as cell growth at 10^-8 M after 48 hrs by SRB assay; conditions: read-out: Activity
[19] = Cytotoxicity against human OVCAR5 cells assessed as cell growth at 10^-6 M after 48 hrs by SRB assay; conditions: OVCAR-5, 48 h, read-out: Activity
[20] = Cytotoxicity against human BT549 cells assessed as cell growth at 10^-6 M after 48 hrs by SRB assay; conditions: BT-549, 48 h, read-out: Activity
ACHN = experiment: Cytotoxicity against human ACHN cells assessed as cell growth at 10^-8 M after 48 hrs by SRB assay; conditions: read-out: Activity
[21] = Cytotoxicity against human HCT15 cells assessed as cell growth at 10^-5 M after 48 hrs by SRB assay; conditions: HCT-15, 48 h, read-out: Activity
NCI-H23 = experiment: Cytotoxicity against human NCI-H23 cells assessed as cell growth at 10^-4 M after 48 hrs by SRB assay; conditions: NCI-H23, 48 h, read-out: Activity
[22] = Cytotoxicity against human HOP62 cells assessed as cell growth at 50 uM after 48 hrs by SRB assay; conditions: HOP-62, 48 h, read-out: Activity
[23] = Cytotoxicity against human DU145 cells assessed as cell growth at 0.5 uM after 48 hrs by SRB assay; conditions: DU-145, 48 h, read-out: Activity
SK-MEL-28 [24] = experiment: Cytotoxicity against human SK-MEL-28 cells assessed as cell growth at 5 uM after 48 hrs by SRB assay; conditions: SK-MEL-28, 48 h, read-out: Activity
[25] = Cytotoxicity against human BT549 cells assessed as cell growth at 50 nM after 48 hrs by SRB assay; conditions: BT-549, 48 h, read-out: Activity
[26] = Cytotoxicity against human OVCAR3 cells assessed as cell growth at 0.5 uM after 48 hrs by SRB assay; conditions: OVCAR-3, 48 h, read-out: Activity
[27] = Cytotoxicity against human OVCAR5 cells assessed as cell growth at 5 uM after 48 hrs by SRB assay; conditions: OVCAR-5, 48 h, read-out: Activity
[28] = Cytotoxicity against human SNB75 cells assessed as cell growth at 5 nM after 48 hrs by SRB assay; conditions: SNB-75, 48 h, read-out: Activity
SK-MEL-2 [29] = experiment: Cytotoxicity against human SK-MEL-2 cells assessed as cell growth at 5 uM after 48 hrs by SRB assay; conditions: SK-MEL-2, 48 h, read-out: Activity
KM12 = experiment: Cytotoxicity against human KM12 cells assessed as cell growth at 5 uM after 48 hrs by SRB assay; conditions: KM12, 48 h, read-out: Activity
A549 [30] = experiment: Cytotoxicity against human A549 cells assessed as cell growth at 50 uM after 48 hrs by SRB assay; conditions: A549, 48 h, read-out: Activity
NCI-H226 = experiment: Cytotoxicity against human NCI-H226 cells assessed as cell growth at 50 uM after 48 hrs by SRB assay; conditions: NCI-H226, 48 h, read-out: Activity
T47D = experiment: Cytotoxicity against human T47D cells assessed as cell growth at 5 nM after 48 hrs by SRB assay; conditions: read-out: Activity
HT-29 [31] = experiment: Cytotoxicity against human HT-29 cells assessed as cell growth at 5 uM after 48 hrs by SRB assay; conditions: HT-29, 48 h, read-out: Activity

C/C(=C(/c1ccc(O)cc1)c1ccc(OCCN2CCCC2)cc1)c1ccccc1
growth at 10 µM [1]: 3% | GI50 (K562): 1.81 µM | LC50 (K562): 23.6 µM | TGI (K562): 4.77 µM | growth at 0.1 µM [2]: 102% | growth at 0.1 µM [3]: 91% | growth at 1 µM [4]: 89% | growth at 1 µM (SK-MEL-2 [5]): 99% | growth at 100 µM (EKVX): -100% | growth at 1 µM (U-251): 95% | growth at 0.1 µM [6]: 99% | growth at 100 µM [7]: -100% | growth at 10 µM [8]: 23% | growth at 1 µM (HT-29 [9]): 67% | growth at 100 µM [10]: -43% | growth at 10 µM [11]: -19% | growth at 0.1 µM [12]: 101% | growth at 100 µM (A549 [13]): -96% | growth at 10 µM [14]: 13% | growth at 1 µM [15]: 94% | GI50 [16]: 3.25 µM | TGI [16]: 13 µM | CC50 [16]: 36.9 µM | growth at 0.01 µM (SK-MEL-5): 101% | growth at 0.01 µM (SK-MEL-28 [17]): 90% | growth at 0.1 µM [18]: 105% | growth at 0.01 µM (SR): 96% | growth at 1 µM [19]: 85% | growth at 1 µM [20]: 92% | growth at 0.01 µM (ACHN): 93% | growth at 10 µM [21]: -41% | growth at 100 µM (NCI-H23): -83%

CCCCCCCCCC(=O)Oc1ccc(/C(=C(/C)c2ccccc2)c2ccc(OCCN3CCCC3)cc2)cc1
LC50 (K562): 36.2 µM | TGI (K562): 16.2 µM | growth at 50 µM [22]: -78% | growth at 0.5 µM [23]: 81% | growth at 5 µM (SK-MEL-28 [24]): 89% | growth at 0.05 µM [25]: 92% | growth at 0.5 µM [26]: 86% | growth at 5 µM [27]: 91% | growth at 0.005 µM [28]: 88% | growth at 5 µM (SK-MEL-2 [29]): 100% | growth at 5 µM (KM12): 94% | GI50 [16]: 7.36 µM | TGI [16]: 14.8 µM | CC50 [16]: 29.6 µM | growth at 50 µM (A549 [30]): -82% | growth at 50 µM (NCI-H226): -74% | growth at 0.005 µM (T47D): 69% | growth at 5 µM (HT-29 [31]): 58%
